# From patent US11234982B2, “Methods for treating ocular surface pain” (NOVARTIS AG, priority 2019, dated 2022)
# Several values for one entry are separate records, joined by “and”; a condition that tells them apart may be missing. Identical values can stand only once. Entries after “also recorded” stand apart in the source; their conditions may differ.
# Tests used:
# Type in all cases: in vivo, human
# cornea = experiment: Esthesiometry assessment (Part 3): corneal sensitivity, anesthetic effect; conditions: for Anesthetic effect on the cornea (esthesiometry): single eye drop: tetracaine 0.5%, diclofenac 0.1%
# Description: Part 3 was an esthesiometry assessment to evaluate the anesthetic properties of compound I. Part 3 of the study had four arms, with compound I, vehicle, tetracaine (0.5% ophthalmic solution, used as a positive control) and diclofenac sodium (0.1% ophthalmic solution, used as the active NSAID comparator). Ocular anesthetic was selected because of its established anesthetic effect; however it is not the standard of care due to its negative effect on wound healing. NSAID is the current standard of care for corneal pain after PRK with minimal anesthetic but significant pain control properties. Vehicle eye drops were used as a negative control to enable better determination of the potential anesthetic effect. Twelve healthy subjects, who met the eligibility criteria, were randomized to receive a single eye drop of 4 study treatments, each during 1 of 4 different study days (Days 1, 4, 7 and 10). Each subject was randomized to receive the study treatment according to one of the following four sequences: • Sequence 1: Anesthetic, NSAID, compound I 2.5%, Vehicle • Sequence 2: NSAID, Vehicle, Anesthetic, compound I 2.5% • Sequence 3: Vehicle, compound I 2.5%, NSAID, Anesthetic • Sequence 4: compound I 2.5%, Anesthetic, Vehicle, NSAID
# Inclusion Criteria: • Written informed consent was obtained before any assessment was performed. • Healthy male and female subjects aged 18 to 50 years (inclusive), and in good health as determined by past medical history, physical examination, vital signs, ECG, and laboratory tests at Screening. • At Screening, and Baseline, vital signs (systolic and diastolic blood pressure (BP) and pulse rate) were assessed in the sitting position after the subject had rested for at least 3 minutes and again after 3 minutes in the standing position. […] BMI=Body weight (kg)/[Height (m)]^2 • Subjects who were able to communicate well with the Investigator, to understand and comply with the requirements of the study. • For Part 3, subjects Baseline levels of eye sensitivity were to be in the range of 50 to 60 mm (inclusive) as measured by the Cochet-Bonnet esthesiometer.
# The first-in-human study further evaluated potential anesthetic effect of topical ocular 2.5% compound I by esthesiometry testing, i.e. measurement of the filament length (cm) when the threshold of cornea touch is perceived.
# [1] = system: patients undergoing photorefractive keratectomy (PRK) surgery; experiment: PRK study: ocular safety assessments and vital signs
# Description: The study was a proof of concept, double-masked, randomized, vehicle-controlled study of compound I administered as eye drops in addition to standard of care treatment in patients after PRK surgery. PRK surgery was performed as an outpatient procedure under topical anesthesia with removal of the corneal epithelium to expose the stroma for the laser ablation. Compound I dosing was as single eye drop of 2.5% (25 mg/ml, 0.925 mg/drop), administered four times daily (every six hours) in one eye from immediate post-op (time 0) to last dose at 72 hours.
# (§1) Adverse events and serious adverse events included an assessment of both systemic and ocular assessments. Systemic safety assessments included regular assessments of height and weight, vital signs, reporting medication errors including misuse/abuse, pregnancy reporting and early phase safety monitoring. The misuse/abuse, pregnancy reporting and early phase safety monitoring were not assessed for the study. Ocular safety assessments included the following: • Best-corrected visual acuity (BCVA) and uncorrected visual acuity (UCVA): Was measured at each visit using an ETDRS visual acuity chart at 4 meters (13 feet) or 1 meter (for patients that cannot read the 4 meter chart). The BCVA scoring was done based on the number of correctly read letters plus 30. If visual acuity was so poor that the patient could not read any of the largest letters at 1 meter, count fingers and hand movement vision and light perception was tested. • Intraocular Pressure (TOP): IOP measurements were conducted with applanation tonometry or Tonopen. • Dilated fundus exam: The dilated fundus examination included ophthalmoscopic assessments of the vitreous, retina/macula/choroid, and optic nerve. Evaluations for retinal tear/detachment, retinal hemorrhage, vitreous hemorrhage density, vitreous haze grading and abnormal findings were done and scored according to grading criteria. • Ocular hyperemia: Conjunctival redness of the bulbar conjunctiva in each eye at the slit lamp according to the McMonnies redness scale was graded. […] By adjusting the calibrated slit beam width and height, the maximum horizontal (wound width) and vertical dimensions (wound height) of the surgical epithelial wound was estimated. The evaluation was performed until wound closure and report of wound size as 0 horizontal and 0 vertical dimensions. • Slit-lamp biomicroscopy: Ocular signs (eyelids/conjunctiva, cornea, lens, and iris/anterior chamber) was assessed in both eyes by slit lamp biomicroscopy according to the grading criteria. • Blink rate: A blink was defined as a bilateral paroxysmal closure of the eyelids (duration<1 second) in the absence of a provoking external stimulus. Each blink assessment lasted for 2 min (or as close to 2 minutes as possible with minimum time 1 minute) and the obtained blink rate was averaged to calculate blink rate in blinks/min. • Tear production (Schirmer's test without anesthesia): The test was performed without anesthetic in both eyes simultaneously. Tear secretion was measured in millimeters of the length of strip wetted by tears. […] The strip was wetted with 1 drop of sterile saline and flicked to remove excess saline. The patient blinked several times to ensure dispersion of the dye throughout the tear film prior to grading on a scale of 0-3 (0=Normal, No staining; 1=Mild, Superficial stippling micropunctate staining; 2=Moderate, Macropunctate staining with some coalescent areas and 3=Severe, Numerous coalescent macropunctate areas and/or patches) for each of 5 zones (central plus 4 quadrants).
# [2] = system: corneal epithelial wound after PRK surgery; experiment: PRK study: size of epithelial defect by slit lamp exam (wound healing)
# Description: as §1
# Size of epithelial defect by slit lamp exam: In order to assess the rate of wound healing after administration of compound I, the size of the epithelial defect in both compound I and Vehicle treated populations was measured. The elliptical area of epithelial wound size was calculated as follows: […], from the width and height of the epithelial defect measured at the slit lamp. The difference in epithelial wound area between compound I and Vehicle was not noticeably different at any time point except at Day 2 post-PRK surgery (all p-values for the difference in area was >0.35). On Day 2 (24 hours post-operative), the difference in average epithelial defect area between patients treated with compound I vs. Vehicle was 11.23 mm2 (p value=0.034). This difference was not clinically significant in the immediate post-operative period. […]
# [3] = across the scheduled time points
compound,measurement,setting,value
"CC(C)c1nc2cc(O)ccc2c(=O)n1-c1ccc(C#N)cc1 [Compound I, 4-(7-hydroxy-2-isopropyl-4-oxo-4H-quinazolin-3-yl)-benzonitrile]","Corneal sensitivity, least squares means, Test vs Ref: vs Tetracaine 0.5%",cornea; Compound I 2.5% (N=11) vs Tetracaine 0.5% (N=12) at 2.5 and 10 minutes post-dose,statistical and clinical significance were observed
same,Difference in corneal sensitivity vs vehicle,"cornea; compound I 2.5%, time points up to 30 minutes post-dose",No difference
same,Anesthetic effect on the cornea (esthesiometry),cornea; compound I 2.5%,no anesthetic effect at any time point
same,Anesthetic effect on the cornea (esthesiometry),"cornea; compound I 2.5%, listed as compound I",lack of anesthetic effect
same,"Ocular hyperemia (McMonnies scale) grade 4, compound I vs Vehicle treated eyes",[1]; Day 2 postoperatively (24 hours after PRK surgery),less grade 4 hyperemia (all quadrants); also recorded: Fewer compound I-treated eyes showed severe conjunctival hyperemia
same,"Ocular hyperemia (McMonnies scale) grade 3, compound I vs Vehicle treated eyes",[1]; Day 3 (48 hours post-operative),less grade 3 hyperemia
same,Dilated fundus exam,[1]; [3],No abnormal findings
same,"Slit-lamp biomicroscopy: aqueous flare and inflammatory cell grade, iris/anterior chamber, lens",[1]; [3],No abnormalities were observed
same,"Changes in BCVA, IOP, slit-lamp biomicroscopy, dilated eye exam, blink rate, tear production, corneal staining, vital signs compared to Vehicle",[1]; after compound I administration,no clinically relevant changes
same,"Vital sign parameters (blood pressures, pulse rate, body temperature)",[1]; all patients during the study,within the normal range
same,Increase in mean IOP values compared to Baseline,[1]; at the end of study,< 5 mmHg
same,"Corneal staining, compound I versus Vehicle","[1]; baseline, Day 8, EOS visit",No clinical differences were observed
same,"Best-corrected visual acuity (BCVA) and uncorrected visual acuity (UCVA), compound I vs Vehicle-treated eyes",[1]; throughout the study,did not result in any trend or obvious difference
same,"Blink rate, compound I vs Vehicle treatment",[1]; throughout the study,no trend across the scheduled time points or obvious differences
same,"Intraocular pressure, compound I vs Vehicle-treated eyes",[1]; throughout the study,No trend across the scheduled time points or obvious differences
same,"Epithelial defect area, Difference compound I-Vehicle, mean (SD)",[2]; Day 1,2.98 (27.33) mm^2
same,"Epithelial defect size, Area, Raw mean (SD)",[2]; Day 1,220.15 (32.26) mm^2
same,"Epithelial defect area, Difference compound I-Vehicle, mean (SD)",[2]; Day 2,11.23 mm^2 and 11.23 (32.30) mm^2
same,"Epithelial defect size, Area, Raw mean (SD)",[2]; Day 2,83.02 (32.08) mm^2
same,"Epithelial defect area, Difference compound I-Vehicle, mean (SD)",[2]; Day 3,1.02 (8.78) mm^2
same,"Epithelial defect size, Area, Raw mean (SD)",[2]; Day 3,6.75 (12.66) mm^2
same,"Epithelial defect area, Difference compound I-Vehicle, mean (SD)",[2]; Day 4,0.31 (2.11) mm^2
same,"Epithelial defect size, Area, Raw mean (SD)",[2]; Day 4,0.39 (2.04) mm^2
same,"Epithelial defect area, Difference compound I-Vehicle, mean (SD)",[2]; Day 8,0.00 (0.00) mm^2
same,"Epithelial defect size, Area, Raw mean (SD)",[2]; Day 8,0.00 (0.00) mm^2
same,Wound healing compared to Vehicle,[2]; after PRK surgery,no delay in wound healing
